Here are results for two compounds from patent US20060272107A1, “Hair relaxing composition comprising at least one non-hydroxide polyguanidine” (priority 2005, published 2006).

The test is described as follows: Hair relaxing test: simplified aqueous composition applied to hair. The method, then:
A simplified hair relaxing composition was prepared, containing N″,N″-1,3-propanediylbis[N,N,N′,N′-tetramethylguanidine] (RN: 289474-28-8) at a concentration of 0.5M in water, as active relaxing agent. This composition was applied to naturally frizzy African hair for 20 minutes at a temperature of 30° C.
A simplified hair relaxing composition was prepared, containing N″,N″,N″″-(nitrilotri-2,1-ethanediyl)tris[N,N,N′,N′-tetramethylguanidine] (RN: 368866-05-1) at a concentration of 0.25M in water, as active relaxing agent. This composition was applied to naturally frizzy African hair for 25 minutes at a temperature of 30° C.

For `CN(C)C(=NCCN(CCN=C(N(C)C)N(C)C)CCN=C(N(C)C)N(C)C)N(C)C` [N″,N″,N″″-(nitrilotri-2,1-ethanediyl)tris[N,N,N′,N′-tetramethylguanidine]], the hair relaxing result (0.25M in water, applied for 25 minutes at 30° C) is reported as “effectively relaxed”.

Take `CN(C)C(=NCCCN=C(N(C)C)N(C)C)N(C)C` [N″,N″-1,3-propanediylbis[N,N,N′,N′-tetramethylguanidine]]: where the note is “0.5M in water, applied for 20 minutes at 30° C”, the hair relaxing result is listed as “effectively relaxed”.
